Calls of active or inactive are those of the source. The rule behind the calls is not given here.
Key:
Calvarial osteoblast [1] = test: Osteogenic activity in rat primary calvarial osteoblasts assessed as induction of ALP activity at 1 pM to 1 uM after 10 days by colorimetry; format: functional, cell-based
Ishikawa [2] = test: Estrogenic activity in ER expressing human Ishikawa cells assessed as induction of ALP activity at 100 pM relative to control; format: functional
Ishikawa [3] = test: Estrogenic activity in ER expressing human Ishikawa cells assessed as induction of ALP activity at 1 pM to 1 uM; format: functional, cell-based
Ishikawa [4] = test: Antiestrogenic activity in ER expressing human Ishikawa cells assessed as inhibition of ALP activity at 1 pM to 1 uM; format: functional, cell-based
Calvarial osteoblast [5] = test: Induction of rat calvarial osteoblast mineralization assessed as increase in formation of mineralized calcium nodules at 10 nM after 21 days by alizarin red-S staining-based assay; format: functional, cell-based
Calvarial osteoblast [6] = test: Osteogenic activity in rat primary calvarial osteoblasts assessed as induction of ALP activity at 1 pM to 1 uM after 10 days by colorimetry in presence of anti-estrogen ICI-182780; format: functional, cell-based
Ishikawa [7] = test: Estrogenic activity in ER expressing human Ishikawa cells assessed as induction of ALP activity at 1 pM to 1 uM in presence of 17beta-E2; format: functional, cell-based
[8] = Toxicity in rat calvarial osteoblast cells at 1 pM to 1 uM after 48 hrs by MTT assay; format: cell-based
[9] = Upregulation of BMP-2 in rat primary calvarial osteoblast cells after 48 hrs by qPCR analysis relative to control; format: functional, cell-based
Rattus norvegicus [10] = test: Osteogenic activity in rat assessed as increase in ALP expression in calvaria at 1 mg/kg, sc qd for 3 days by qPCR analysis; format: functional, organism-based; design: dose 1 mg/kg
Rattus norvegicus [11] = test: Osteogenic activity in rat assessed as increase in ALP expression in calvaria administered as sc qd for 3 days by qPCR analysis; format: functional, organism-based
Rattus norvegicus [12] = test: Osteogenic activity in rat assessed as increase in collagen-1 expression in calvaria at 10 mg/kg, sc qd for 3 days by qPCR analysis; format: functional, organism-based; design: dose 10 mg/kg
Rattus norvegicus [13] = test: Osteogenic activity in rat assessed as increase in collagen-1 expression in calvaria at 5 mg/kg, sc qd for 3 days by qPCR analysis; format: functional, organism-based; design: dose 5 mg/kg
Rattus norvegicus [14] = test: Osteogenic activity in rat assessed as increase in ALP expression in calvaria at 5 mg/kg, sc qd for 3 days by qPCR analysis; format: functional, organism-based; design: dose 5 mg/kg
Rattus norvegicus [15] = test: Osteogenic activity in rat assessed as increase in collagen-1 expression in calvaria at 1 mg/kg, sc qd for 3 days by qPCR analysis; format: functional, organism-based; design: dose 1 mg/kg
Calvarial osteoblast [16] = test: Osteogenic activity in rat primary calvarial osteoblasts assessed as induction of ALP activity at 1 pM after 10 days by colorimetry; format: functional, cell-based
Calvarial osteoblast [17] = test: Induction of rat calvarial osteoblast mineralization assessed as increase in formation of mineralized calcium nodules at 1 pM after 21 days by alizarin red-S staining-based assay; format: functional, cell-based
Rattus norvegicus [18] = test: Osteogenic activity in rat assessed as increase in ALP expression in calvaria at 10 mg/kg, sc qd for 3 days by qPCR analysis; format: functional, organism-based; design: dose 10 mg/kg
Ishikawa [19] = test: Estrogenic activity in ER expressing human Ishikawa cells assessed as induction of ALP activity at 10 nM; format: functional, cell-based
Calvarial osteoblast [20] = test: Osteogenic activity in rat calvarial osteoblasts assessed as induction of ALP activity at 10 nM after 48 hrs by spectrophotometry in presence of anti-estrogen ICI-182780; format: functional, cell-based

## C[C@@H]1O[C@@H](OC[C@H]2O[C@@H](Oc3c(-c4ccc(O)cc4)oc4cc(O)cc(O)c4c3=O)[C@H](O)[C@@H](O)[C@@H]2O)[C@H](O)[C@H](O)[C@H]1O
Calvarial osteoblast [1]
  Activity: inactive

## COc1ccc(-c2coc3cc(O[C@@H]4O[C@H](CO[C@@H]5OC[C@](O)(CO)[C@H]5O)[C@@H](O)[C@H](O)[C@H]4O)cc(O)c3c2=O)cc1
Calvarial osteoblast [1]
  Activity: inactive

## C[C@]12CC[C@@H]3c4ccc(O)cc4CC[C@H]3[C@@H]1CC[C@@H]2O [ESTRADIOL]
Ishikawa [2]
  fold change (FC): 1.5

## COc1ccc(-c2coc3cc(O[C@@H]4O[C@H](CO[C@@H]5OC[C@](O)(CO[C@@H]6OC[C@](O)(CO)[C@H]6O)[C@H]5O)[C@@H](O)[C@H](O)[C@H]4O)cc(O)c3c2=O)cc1
Calvarial osteoblast [1]
  Activity: inactive

## COC(=O)C/C(=C\c1ccc(O)c(O)c1)C(=O)O
Calvarial osteoblast [1]
  Activity: inactive

## COc1ccc(-c2coc3cc(O)cc(O)c3c2=O)cc1O [PRATENSEIN]
Ishikawa [3]
  Activity: inactive
Ishikawa [4]
  Activity: inactive
Calvarial osteoblast [1]
  Activity: Active
Calvarial osteoblast [5]
  Activity: Active
Calvarial osteoblast [6]
  Activity: Active
Ishikawa [7]
  inhibition: inactive
[8]
  Activity: Non-toxic

## O=c1c(-c2ccc(O)cc2)coc2cc(O)cc(O)c12 [GENISTEIN]
Ishikawa [3]
  Activity: inactive
Ishikawa [4]
  Activity: inactive
[9]
  fold change (FC): 5
Calvarial osteoblast [1]
  Activity: Active
Calvarial osteoblast [5]
  Activity: Active
Calvarial osteoblast [6]
  Activity: Active
Ishikawa [7]
  inhibition: inactive
[8]
  Activity: Non-toxic

## COc1cc([C@H]2OC[C@H]3[C@@H]2CO[C@@H]3c2cc(OC)c(O[C@@H]3O[C@H](CO)[C@@H](O)[C@H](O)[C@H]3O)c(OC)c2)cc(OC)c1O
Calvarial osteoblast [1]
  Activity: inactive

## COc1cc(OC)c(-c2coc3cc(O[C@@H]4O[C@H](CO)[C@@H](O)[C@H](O)[C@H]4O)c(OC)c(O)c3c2=O)cc1OC
Calvarial osteoblast [1]
  Activity: inactive

## O=c1c(O[C@@H]2O[C@H](CO)[C@@H](O)[C@H](O)[C@H]2O)c(-c2ccc(O)c(O)c2)oc2cc(O)cc(O)c12
Calvarial osteoblast [1]
  Activity: inactive

## C[C@@H]1O[C@@H](OC[C@H]2O[C@@H](Oc3c(-c4ccc(O)c(O)c4)oc4cc(O)cc(O)c4c3=O)[C@H](O)[C@@H](O)[C@@H]2O)[C@H](O)[C@H](O)[C@H]1O
Calvarial osteoblast [1]
  Activity: inactive

## COc1cc(OC)c(-c2coc3cc(O[C@@H]4O[C@H](CO[C@@H]5OC[C@](O)(CO)[C@H]5O)[C@@H](O)[C@H](O)[C@H]4O)c(OC)c(O)c3c2=O)cc1OC
Ishikawa [3]
  Activity: inactive
Rattus norvegicus [10]
  Activity: Active
Rattus norvegicus [11]
  Activity: Dose-dependent effect
Ishikawa [4]
  Activity: inactive
Rattus norvegicus [12]
  Activity: inactive
Rattus norvegicus [13]
  Activity: inactive
[9]
  fold change (FC): 15
Calvarial osteoblast [1]
  Activity: Active
Rattus norvegicus [14]
  Activity: Active
Rattus norvegicus [15]
  Activity: Active
Calvarial osteoblast [6]
  Activity: Active
Calvarial osteoblast [16]
  Activity: Active
Ishikawa [7]
  inhibition: inactive
Calvarial osteoblast [17]
  Activity: Active
[8]
  Activity: Non-toxic
Rattus norvegicus [18]
  Activity: inactive

## COc1cc(OC)c(-c2coc3cc(O)c(OC)c(O)c3c2=O)cc1OC
Calvarial osteoblast [1]
  Activity: inactive

## O=c1c(O[C@@H]2O[C@H](CO)[C@@H](O)[C@H](O)[C@H]2O)c(-c2ccc(O)cc2)oc2cc(O)cc(O)c12
Calvarial osteoblast [1]
  Activity: inactive

## COc1ccc(-c2coc3cc(O)cc(O)c3c2=O)cc1 [BIOCHANIN]
Ishikawa [19]
  Activity: Active
Calvarial osteoblast [1]
  Activity: Active
Calvarial osteoblast [5]
  Activity: Active
[8]
  Activity: Non-toxic
Calvarial osteoblast [20]
  Activity: inactive

Reference: ChEMBL document CHEMBL1944622, “Constituents of Dalbergia sissoo Roxb. leaves with osteogenic activity” (Bioorg Med Chem Lett, 2012)
